In article PMC7982320 (Pharmacology Research & Perspectives, 2021):
Entries after “also recorded” stand apart in the source; their conditions may differ.

How the values were obtained:
Experiment in all cases: Uptake transporter substrate assay
Type in all cases: in vitro ADME
human OAT1 = target: T1, human OAT1 (Homo sapiens, UniProt Q4U2R8); settings: OAT1 UPT; for Maximum fold accumulation over control: maximum seen at 2.5 µM and 20 min, n = 3
T1 sequence (Q4U2R8 1-563): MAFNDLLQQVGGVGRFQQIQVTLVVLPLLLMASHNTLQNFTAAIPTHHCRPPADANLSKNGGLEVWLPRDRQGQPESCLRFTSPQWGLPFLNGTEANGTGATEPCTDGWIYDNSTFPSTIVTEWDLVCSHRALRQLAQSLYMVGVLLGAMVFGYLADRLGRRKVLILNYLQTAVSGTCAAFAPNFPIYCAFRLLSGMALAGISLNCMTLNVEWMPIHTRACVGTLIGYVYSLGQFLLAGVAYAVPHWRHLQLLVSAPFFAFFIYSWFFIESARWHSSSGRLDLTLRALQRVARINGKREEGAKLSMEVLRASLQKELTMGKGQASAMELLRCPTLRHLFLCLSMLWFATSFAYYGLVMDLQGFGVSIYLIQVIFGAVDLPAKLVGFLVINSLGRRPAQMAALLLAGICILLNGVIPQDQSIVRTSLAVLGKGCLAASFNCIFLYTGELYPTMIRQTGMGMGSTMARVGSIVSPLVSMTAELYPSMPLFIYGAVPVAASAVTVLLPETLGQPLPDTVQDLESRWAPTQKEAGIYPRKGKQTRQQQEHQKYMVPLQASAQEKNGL

human OAT3 = target: T2, human OAT3 (Homo sapiens, UniProt Q8TCC7); settings: OAT3 UPT; for Maximum fold accumulation over control: maximum seen at 5 µM and 20 min, n = 3
T2 sequence (Q8TCC7 1-542): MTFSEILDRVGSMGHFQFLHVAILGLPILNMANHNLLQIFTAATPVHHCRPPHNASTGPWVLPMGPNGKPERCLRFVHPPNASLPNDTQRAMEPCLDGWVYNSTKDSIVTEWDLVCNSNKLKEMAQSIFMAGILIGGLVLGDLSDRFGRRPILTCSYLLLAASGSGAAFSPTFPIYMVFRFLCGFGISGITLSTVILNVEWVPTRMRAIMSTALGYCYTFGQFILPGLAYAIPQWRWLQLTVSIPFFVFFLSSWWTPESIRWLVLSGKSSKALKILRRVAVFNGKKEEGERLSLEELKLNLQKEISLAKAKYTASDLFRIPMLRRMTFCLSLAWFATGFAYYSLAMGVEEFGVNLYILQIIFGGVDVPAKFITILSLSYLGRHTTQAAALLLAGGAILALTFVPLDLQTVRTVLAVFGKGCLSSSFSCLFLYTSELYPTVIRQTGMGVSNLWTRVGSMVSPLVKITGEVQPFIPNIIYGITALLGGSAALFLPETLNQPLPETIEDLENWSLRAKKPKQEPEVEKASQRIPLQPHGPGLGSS

human MATE1 = target: T3, human MATE1 (Homo sapiens, UniProt Q96FL8); settings: MATE1 UPT; for Maximum fold accumulation over control: maximum seen at 1 µM and 2 min, n = 3
T3 sequence (Q96FL8 1-570): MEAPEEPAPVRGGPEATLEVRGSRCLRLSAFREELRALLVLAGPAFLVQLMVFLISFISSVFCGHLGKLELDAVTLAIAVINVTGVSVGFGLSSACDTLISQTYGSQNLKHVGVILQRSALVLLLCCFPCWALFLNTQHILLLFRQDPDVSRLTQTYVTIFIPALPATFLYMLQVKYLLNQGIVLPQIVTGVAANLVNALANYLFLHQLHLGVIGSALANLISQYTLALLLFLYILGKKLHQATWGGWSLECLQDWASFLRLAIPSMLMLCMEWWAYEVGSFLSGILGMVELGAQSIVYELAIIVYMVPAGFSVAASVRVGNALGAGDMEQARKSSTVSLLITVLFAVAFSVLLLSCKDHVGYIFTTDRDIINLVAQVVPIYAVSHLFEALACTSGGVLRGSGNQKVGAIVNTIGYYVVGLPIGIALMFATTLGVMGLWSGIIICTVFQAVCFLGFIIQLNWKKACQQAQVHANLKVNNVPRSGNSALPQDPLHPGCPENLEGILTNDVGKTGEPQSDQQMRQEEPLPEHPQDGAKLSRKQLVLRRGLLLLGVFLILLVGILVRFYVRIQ

human OATP1B1 = target: T4, human OATP1B1 (Homo sapiens, UniProt Q9Y6L6); settings: OATP1B1 UPT; for Maximum fold accumulation over control: maximum seen at 2.5 µM and 20 min, n = 3
T4 sequence (Q9Y6L6 1-691): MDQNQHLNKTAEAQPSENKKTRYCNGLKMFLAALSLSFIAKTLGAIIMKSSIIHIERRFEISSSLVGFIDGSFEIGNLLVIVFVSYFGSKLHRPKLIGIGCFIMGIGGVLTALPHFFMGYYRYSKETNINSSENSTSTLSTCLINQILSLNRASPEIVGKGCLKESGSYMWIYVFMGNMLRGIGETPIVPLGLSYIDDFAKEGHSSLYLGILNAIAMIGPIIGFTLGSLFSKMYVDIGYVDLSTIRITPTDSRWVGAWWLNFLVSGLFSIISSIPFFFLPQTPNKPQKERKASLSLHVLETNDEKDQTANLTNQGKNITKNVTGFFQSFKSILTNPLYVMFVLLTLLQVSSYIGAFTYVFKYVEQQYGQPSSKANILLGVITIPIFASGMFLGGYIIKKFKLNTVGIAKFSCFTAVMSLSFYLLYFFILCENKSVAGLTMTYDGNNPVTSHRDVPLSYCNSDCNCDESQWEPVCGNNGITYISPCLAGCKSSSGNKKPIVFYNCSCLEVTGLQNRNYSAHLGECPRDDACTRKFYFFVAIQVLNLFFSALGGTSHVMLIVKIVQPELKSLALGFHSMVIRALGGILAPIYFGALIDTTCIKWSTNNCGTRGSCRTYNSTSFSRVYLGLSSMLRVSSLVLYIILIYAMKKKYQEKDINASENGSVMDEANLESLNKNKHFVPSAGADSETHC

[1] = listed as 6β‐hydroxy‐21‐desacetyl deflazacort

Compound | Substrate potential (human OAT1) | Substrate potential (human OAT1; [1]) | Maximum fold accumulation over control (human OAT1) | Substrate potential (human OAT3) | Fold accumulation over control, without inhibitor (inhibitor experiment) (human OAT3; before inhibitor‐reduced accumulation) | Substrate potential (human OAT3; [1]) | Maximum fold accumulation over control (human OAT3) | Substrate potential (human MATE1) | Substrate potential (human MATE1; [1]) | Maximum fold accumulation over control (human MATE1) | Substrate potential (human OATP1B1) | Substrate potential (human OATP1B1; [1]) | Maximum fold accumulation over control (human OATP1B1) | Fold accumulation over control, in the presence of OAT3 inhibitor (human OAT3; with inhibitor probenecid)
CC1=N[C@]2(C(=O)CO)[C@@H](C[C@H]3[C@@H]4C[C@@H](O)C5=CC(=O)C=C[C@]5(C)[C@H]4[C@@H](O)C[C@@]32C)O1 [6β‐OH‐21‐desDFZ, 6β‐Hydroxy‐21‐desacetyl deflazacort] | not a substrate | No | 1.15 at 2.5 µM and 20 min fold | appeared to be an in vitro substrate; also recorded: in vitro substrate for human OAT3 | 1.75 fold | Yes | 2.71 fold | not a substrate | No | 1.18 at 1 µM and 2 min fold | not a substrate | No | 1.02 at 2.5 µM and 20 min fold | –
[2’-^14C]-6β-hydroxy-21-desacetyl-deflazacort [^14C‐6β‐OH‐21‐desDFZ] | – | – | < 2 fold | is an OAT3 substrate in vitro | – | – | 2.71 fold | – | – | < 2 fold | – | – | < 2 fold | 1.08 fold
